Measured values reported in ChEMBL document CHEMBL4334438, “Discovery of novel glycogen synthase kinase-3α inhibitors: Structure-based virtual screening, preliminary SAR and biological evaluation for treatment of acute myeloid leukemia” (Eur J Med Chem, 2019).

Experiments:
[1] = tested on: Angiopoietin-1 receptor (Homo sapiens), Q02763 [Q939H,Q940H,Y897S]; test: Inhibition of human Tie2 Q939H/Q940H/Y897S mutant (771 to end residues) assessed as residual activity at 1 uM using EFPIYDFLPAKKK as substrate measured after 40 mins in presence of [gamma33P]ATP by scintillation counting method relative to control
[2] = biological target: LIM domain kinase 1 (Homo sapiens) (UniProt P53667); test: Inhibition of recombinant human LIMK1 (285 to 638 residues) assessed as residual activity at 1 uM using cofilin as substrate after 40 mins in presence of [gamma-33ATP] by scintillation counting based radiometry assay relative to control
[3] = biological target: Protein kinase C delta type (Homo sapiens) (UniProt Q05655); test: Inhibition of recombinant human PKCdelta (2 to end residues) assessed as residual activity at 1 uM using ERMRPRKRQGSVRRRV as substrate measured after 40 mins in presence of [gamma33P]ATP by scintillation counting method relative to control
Homo sapiens = organism: Homo sapiens; test: Inhibition of recombinant full length human Aurora A I31F mutant assessed as residual activity at 1 uM using LRRASLG as substrate incubated for 40 mins in presence of [gamma-33ATP] by scintillation counting based radiometry assay relative to control
[4] = biological target: Serine/threonine-protein kinase B-raf (Homo sapiens) (UniProt P15056); test: Inhibition of recombinant full length human B-Raf (416 to end residues) assessed as residual activity at 1 uM using myelin basic protein substrate incubated for 40 mins in presence of [gamma-33ATP] by scintillation counting based radiometry assay relative to control
Serine/threonine-protein kinase B-raf (Homo sapiens), sequence (P15056 whole entry, the tested form may be a part): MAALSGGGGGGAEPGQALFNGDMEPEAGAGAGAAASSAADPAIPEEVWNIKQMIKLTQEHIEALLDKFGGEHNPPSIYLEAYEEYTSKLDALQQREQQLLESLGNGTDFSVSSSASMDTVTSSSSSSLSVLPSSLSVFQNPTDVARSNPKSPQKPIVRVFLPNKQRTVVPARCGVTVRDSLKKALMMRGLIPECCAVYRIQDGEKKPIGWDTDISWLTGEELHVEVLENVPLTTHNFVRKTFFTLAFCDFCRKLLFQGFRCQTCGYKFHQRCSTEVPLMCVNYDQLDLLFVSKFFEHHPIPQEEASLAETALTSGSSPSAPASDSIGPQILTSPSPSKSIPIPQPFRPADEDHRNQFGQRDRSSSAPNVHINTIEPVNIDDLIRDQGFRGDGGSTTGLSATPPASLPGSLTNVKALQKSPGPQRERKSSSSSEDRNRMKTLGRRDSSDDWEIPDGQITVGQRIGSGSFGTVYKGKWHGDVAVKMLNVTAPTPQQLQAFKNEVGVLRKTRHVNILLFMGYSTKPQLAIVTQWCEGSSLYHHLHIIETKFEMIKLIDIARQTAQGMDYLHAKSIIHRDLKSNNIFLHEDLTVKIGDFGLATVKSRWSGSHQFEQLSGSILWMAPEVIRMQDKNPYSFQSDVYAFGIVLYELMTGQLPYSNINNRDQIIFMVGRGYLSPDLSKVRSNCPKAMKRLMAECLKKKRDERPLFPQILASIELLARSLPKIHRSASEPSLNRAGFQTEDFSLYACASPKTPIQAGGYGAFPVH

[5] = biological target: TRAF2 and NCK-interacting protein kinase (Homo sapiens) (UniProt Q9UKE5); test: Inhibition of human TNIK (1 to 367 residues) assessed as residual activity at 1 uM using RLGRDKYKTLRQIRQ as substrate measured after 40 mins in presence of [gamma33P]ATP by scintillation counting method relative to control
[6] = biological target: Calcium/calmodulin-dependent protein kinase type II subunit alpha (Homo sapiens) (UniProt Q9UQM7); test: Inhibition of recombinant full length human CaMK2alpha assessed as residual activity at 1 uM using KKLNRTLSFAEPG as substrate incubated for 40 mins in presence of [gamma-33ATP] by scintillation counting based radiometry assay relative to control
[7] = biological target: Ribosomal protein S6 kinase alpha-6 (Homo sapiens) (UniProt Q9UK32); test: Inhibition of recombinant full length human Rsk4 assessed as residual activity at 1 uM using LRRASLG as substrate measured after 40 mins in presence of [gamma33P]ATP by scintillation counting method relative to control
[8] = biological target: Ephrin type-A receptor 4 (Homo sapiens) (UniProt P54764); test: Inhibition of recombinant human EphA4 (601 to 892 residues) assessed as residual activity at 1 uM using poly(Glu, Tyr) 4:1 as substrate at 40 mins in presence of [gamma-33ATP] by scintillation counting based radiometry assay relative to control
[9] = biological target: Tyrosine-protein kinase JAK3 (Homo sapiens) (UniProt P52333); test: Inhibition of human JAK3 (781 to end residues) assessed as residual activity at 1 uM using GGEEEEYFELVKKKK as substrate after 40 mins by [gamma-33ATP] radiometric assay relative to control
Tyrosine-protein kinase JAK3 (Homo sapiens), sequence (P52333 whole entry): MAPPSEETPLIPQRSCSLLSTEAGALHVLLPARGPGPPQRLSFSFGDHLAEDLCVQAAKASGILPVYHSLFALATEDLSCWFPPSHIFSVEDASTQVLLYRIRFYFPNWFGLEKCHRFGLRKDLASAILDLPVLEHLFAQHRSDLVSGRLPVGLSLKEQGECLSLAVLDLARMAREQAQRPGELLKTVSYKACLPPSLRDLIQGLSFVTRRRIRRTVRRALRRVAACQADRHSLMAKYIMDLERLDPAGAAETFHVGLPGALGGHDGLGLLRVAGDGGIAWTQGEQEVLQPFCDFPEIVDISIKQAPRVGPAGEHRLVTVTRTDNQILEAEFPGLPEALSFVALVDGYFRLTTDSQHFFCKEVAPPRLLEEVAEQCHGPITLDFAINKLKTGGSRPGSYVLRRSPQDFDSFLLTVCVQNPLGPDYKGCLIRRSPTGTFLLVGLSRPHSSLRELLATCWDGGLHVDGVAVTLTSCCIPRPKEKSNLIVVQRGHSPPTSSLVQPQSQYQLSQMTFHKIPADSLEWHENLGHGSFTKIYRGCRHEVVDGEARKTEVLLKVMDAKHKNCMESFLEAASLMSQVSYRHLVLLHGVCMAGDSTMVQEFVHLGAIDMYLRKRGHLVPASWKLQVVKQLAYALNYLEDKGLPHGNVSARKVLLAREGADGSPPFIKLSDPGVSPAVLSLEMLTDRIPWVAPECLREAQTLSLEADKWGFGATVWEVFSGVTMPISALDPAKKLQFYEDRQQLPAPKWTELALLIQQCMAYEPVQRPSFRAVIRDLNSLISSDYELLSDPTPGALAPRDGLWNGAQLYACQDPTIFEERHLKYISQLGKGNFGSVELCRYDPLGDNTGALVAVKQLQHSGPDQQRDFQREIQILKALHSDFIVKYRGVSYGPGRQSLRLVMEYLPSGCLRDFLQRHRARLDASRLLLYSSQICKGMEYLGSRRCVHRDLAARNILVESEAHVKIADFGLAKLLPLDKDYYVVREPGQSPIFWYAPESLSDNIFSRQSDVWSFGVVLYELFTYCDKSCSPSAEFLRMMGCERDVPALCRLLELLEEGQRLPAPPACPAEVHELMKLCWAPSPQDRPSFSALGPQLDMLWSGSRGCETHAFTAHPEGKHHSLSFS

[10] = biological target: Calcium/calmodulin-dependent protein kinase type 1B (Homo sapiens) (UniProt Q6P2M8); test: Inhibition of recombinant full length human CaMKIbeta assessed as residual activity at 1 uM using KKLRRTLSFAEP as substrate incubated for 40 mins in presence of [gamma-33ATP] by scintillation counting based radiometry assay relative to control
Calcium/calmodulin-dependent protein kinase type 1B (Homo sapiens), sequence (Q6P2M8 whole entry, the tested form may be a part): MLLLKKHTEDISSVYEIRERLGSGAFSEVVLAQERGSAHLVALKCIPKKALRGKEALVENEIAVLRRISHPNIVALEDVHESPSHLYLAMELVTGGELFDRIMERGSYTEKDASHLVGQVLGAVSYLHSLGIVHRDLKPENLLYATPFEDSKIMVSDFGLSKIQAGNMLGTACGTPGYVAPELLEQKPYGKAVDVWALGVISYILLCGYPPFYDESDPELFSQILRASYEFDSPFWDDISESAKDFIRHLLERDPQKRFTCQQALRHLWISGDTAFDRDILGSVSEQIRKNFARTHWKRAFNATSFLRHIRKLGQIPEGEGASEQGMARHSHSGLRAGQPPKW

[11] = biological target: Serine/threonine-protein kinase PLK3 (Homo sapiens) (UniProt Q9H4B4); test: Inhibition of recombinant human Plk3 (19 to 301 residues) assessed as residual activity at 1 uM using casein as substrate measured after 40 mins in presence of [gamma33P]ATP by scintillation counting method relative to control
[12] = biological target: Interferon-induced, double-stranded RNA-activated protein kinase (Homo sapiens) (UniProt P19525); test: Inhibition of recombinant human PKR (252 to end residues) assessed as residual activity at 1 uM using RSRSRSRSRSRSRSR as substrate measured after 40 mins in presence of [gamma33P]ATP by scintillation counting method relative to control
Interferon-induced, double-stranded RNA-activated protein kinase (Homo sapiens), sequence (P19525 whole entry): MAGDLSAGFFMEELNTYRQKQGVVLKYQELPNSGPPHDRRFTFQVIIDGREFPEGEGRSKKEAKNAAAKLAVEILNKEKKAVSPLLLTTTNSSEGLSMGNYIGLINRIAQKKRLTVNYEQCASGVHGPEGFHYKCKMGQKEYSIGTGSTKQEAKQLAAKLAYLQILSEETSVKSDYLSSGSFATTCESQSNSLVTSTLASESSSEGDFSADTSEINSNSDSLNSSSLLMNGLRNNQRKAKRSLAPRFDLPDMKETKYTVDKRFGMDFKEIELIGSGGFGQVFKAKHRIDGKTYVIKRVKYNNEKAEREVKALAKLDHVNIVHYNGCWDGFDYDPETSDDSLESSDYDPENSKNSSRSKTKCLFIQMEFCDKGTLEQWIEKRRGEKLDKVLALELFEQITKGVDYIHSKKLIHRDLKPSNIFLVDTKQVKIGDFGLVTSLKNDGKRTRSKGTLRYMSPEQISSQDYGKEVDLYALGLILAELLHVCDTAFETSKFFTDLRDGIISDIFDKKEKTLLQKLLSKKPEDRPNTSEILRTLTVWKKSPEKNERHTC

[13] = biological target: Tyrosine-protein kinase Fes/Fps (Homo sapiens) (UniProt P07332); test: Inhibition of recombinant human FES (2 to end residues) assessed as residual activity at 1 uM using poly(Glu, Tyr) 4:1 as substrate at 40 mins in presence of [gamma-33ATP] by scintillation counting based radiometry assay relative to control
[14] = biological target: Eukaryotic translation initiation factor 2-alpha kinase 1 (Homo sapiens) (UniProt Q9BQI3); test: Inhibition of human HRI (140 to end residues) assessed as residual activity at 1 uM using RSRSRSRSRSRSRSR as substrate after 120 mins by [gamma-33ATP] radiometric assay relative to control
[15] = biological target: Death-associated protein kinase 3 (Homo sapiens) (UniProt O43293); test: Inhibition of human ZIPK (1 to 290 residues) assessed as residual activity at 1 uM using KKLNRTLSFAEPG as substrate measured after 40 mins in presence of [gamma33P]ATP by scintillation counting method relative to control
Death-associated protein kinase 3 (Homo sapiens), sequence (O43293 whole entry, looked up, the tested form may be a part): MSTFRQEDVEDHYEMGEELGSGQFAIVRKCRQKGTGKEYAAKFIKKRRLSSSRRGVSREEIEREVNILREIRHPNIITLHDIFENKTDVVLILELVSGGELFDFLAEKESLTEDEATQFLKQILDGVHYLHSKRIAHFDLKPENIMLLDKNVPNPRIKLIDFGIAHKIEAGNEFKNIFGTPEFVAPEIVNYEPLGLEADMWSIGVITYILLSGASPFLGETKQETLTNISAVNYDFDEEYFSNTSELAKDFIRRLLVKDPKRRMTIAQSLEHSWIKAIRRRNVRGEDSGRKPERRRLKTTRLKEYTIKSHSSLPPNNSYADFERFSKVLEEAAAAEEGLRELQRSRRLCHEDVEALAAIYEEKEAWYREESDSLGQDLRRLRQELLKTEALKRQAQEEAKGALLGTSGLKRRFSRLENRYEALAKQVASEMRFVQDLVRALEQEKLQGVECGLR

[16] = tested on: Receptor-type tyrosine-protein kinase FLT3 (Homo sapiens), P36888 [D835Y]; test: Inhibition of recombinant human FLT3 D835Y mutant (564 to end residues) assessed as residual activity at 1 uM using EAIYAAPFAKKK as substrate at 40 mins in presence of [gamma-33ATP] by scintillation counting based radiometry assay relative to control
[17] = tested on: Discoidin domain-containing receptor 2 (Homo sapiens), Q16832 [UNDEFINED MUTATION]; test: Inhibition of recombinant human DDR2 S642A mutant (467 to end residues) assessed as residual activity at 1 uM using KKSRGDYMTMQIG as substrate at 40 mins in presence of [gamma-33ATP] by scintillation counting based radiometry assay relative to control
[18] = biological target: Casein kinase 2 (Homo sapiens) (UniProt P67870+P68400+P19784+Q8NEV1); test: Inhibition of recombinant human CK2 assessed as residual activity at 1 uM in presence of [gamma-33ATP] by scintillation counting based radiometry assay relative to control; format: protein assay
[19] = biological target: Serine/threonine-protein kinase MRCK beta (Homo sapiens) (UniProt Q9Y5S2); test: Inhibition of recombinant human MRCKbeta (1 to 473 residues) assessed as residual activity at 1 uM using KKRNRTLTV as substrate measured after 40 mins in presence of [gamma33P]ATP by scintillation counting method relative to control
Serine/threonine-protein kinase MRCK beta (Homo sapiens), sequence (Q9Y5S2 whole entry, the tested form may be a part): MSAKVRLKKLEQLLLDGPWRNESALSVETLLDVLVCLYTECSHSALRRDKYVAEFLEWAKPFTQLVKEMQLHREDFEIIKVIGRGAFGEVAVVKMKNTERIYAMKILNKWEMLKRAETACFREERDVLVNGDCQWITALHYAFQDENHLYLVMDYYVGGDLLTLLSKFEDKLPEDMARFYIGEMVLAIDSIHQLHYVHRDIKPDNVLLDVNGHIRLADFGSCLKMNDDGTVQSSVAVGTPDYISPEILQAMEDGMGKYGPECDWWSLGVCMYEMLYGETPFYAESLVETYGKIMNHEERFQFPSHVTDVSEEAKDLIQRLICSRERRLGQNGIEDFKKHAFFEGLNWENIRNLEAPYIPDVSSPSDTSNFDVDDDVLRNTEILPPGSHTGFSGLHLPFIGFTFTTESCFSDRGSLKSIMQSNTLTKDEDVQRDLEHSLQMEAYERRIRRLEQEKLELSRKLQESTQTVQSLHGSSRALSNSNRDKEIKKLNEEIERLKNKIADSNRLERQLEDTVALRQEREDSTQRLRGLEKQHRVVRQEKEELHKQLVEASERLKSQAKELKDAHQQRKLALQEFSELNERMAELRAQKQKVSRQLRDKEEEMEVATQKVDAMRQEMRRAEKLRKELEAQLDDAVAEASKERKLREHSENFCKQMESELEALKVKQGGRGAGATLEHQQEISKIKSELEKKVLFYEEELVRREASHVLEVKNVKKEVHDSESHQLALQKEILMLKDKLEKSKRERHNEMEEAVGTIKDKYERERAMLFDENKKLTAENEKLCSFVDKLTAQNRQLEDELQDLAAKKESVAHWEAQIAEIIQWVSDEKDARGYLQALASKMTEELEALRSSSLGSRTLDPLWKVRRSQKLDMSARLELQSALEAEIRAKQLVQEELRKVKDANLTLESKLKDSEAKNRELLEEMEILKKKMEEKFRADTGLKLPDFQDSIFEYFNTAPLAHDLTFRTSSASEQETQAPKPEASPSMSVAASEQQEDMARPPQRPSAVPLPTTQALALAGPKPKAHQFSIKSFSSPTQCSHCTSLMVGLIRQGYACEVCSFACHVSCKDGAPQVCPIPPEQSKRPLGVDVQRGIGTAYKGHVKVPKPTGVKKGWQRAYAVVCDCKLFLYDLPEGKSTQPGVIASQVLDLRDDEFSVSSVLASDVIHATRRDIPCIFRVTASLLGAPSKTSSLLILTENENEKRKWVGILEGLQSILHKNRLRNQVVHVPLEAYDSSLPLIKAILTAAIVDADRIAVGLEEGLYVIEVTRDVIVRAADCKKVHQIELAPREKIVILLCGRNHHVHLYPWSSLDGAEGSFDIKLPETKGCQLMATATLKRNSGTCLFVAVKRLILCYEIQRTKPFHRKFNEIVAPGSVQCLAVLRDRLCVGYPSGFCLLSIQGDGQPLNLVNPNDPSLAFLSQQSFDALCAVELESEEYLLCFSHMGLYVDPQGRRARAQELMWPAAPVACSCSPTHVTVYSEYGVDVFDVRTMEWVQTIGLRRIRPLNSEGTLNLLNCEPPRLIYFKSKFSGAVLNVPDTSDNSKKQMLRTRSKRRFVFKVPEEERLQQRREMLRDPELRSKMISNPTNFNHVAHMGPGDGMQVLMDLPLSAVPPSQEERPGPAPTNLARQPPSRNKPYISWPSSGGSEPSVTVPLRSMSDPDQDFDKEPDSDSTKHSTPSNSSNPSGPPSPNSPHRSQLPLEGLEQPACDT

[20] = tested on: Dual specificity protein kinase TTK (Homo sapiens), P33981 [S389A]; test: Inhibition of recombinant full-length human TTK S389A mutant at 1 uM assessed as residual activity at 1 uM using MBP as substrate measured after 40 mins in presence of [gamma33P]ATP by scintillation counting method relative to control

| SMILES | Activity [1] [%] | Activity [2] [%] | Activity [3] [%] | Activity (Homo sapiens) [%] | Activity [4] [%] | Activity [5] [%] | Activity [6] [%] | Activity [7] [%] | Activity [8] [%] | Activity [9] [%] | Activity [10] [%] | Activity [11] [%] | Activity [12] [%] | Activity [13] [%] | Activity [14] [%] | Activity [15] [%] | Activity [16] [%] | Activity [17] [%] | Activity [18] [%] | Activity [19] [%] | further results |
| --- | --- | --- | --- | --- | --- | --- | --- | --- | --- | --- | --- | --- | --- | --- | --- | --- | --- | --- | --- | --- | --- |
| C=CCOC(=O)c1cc(-c2ccc(/C=C3/NC(=S)NC3=O)o2)ccc1Cl | 98 | 96 | 96 | 114 | 90 | 52 | 62 | 92 | 98 | 104 | 78 | 98 | 98 | 91 | 101 | 96 | 101 | 105 | 58 | 110 | Activity [20]: 92% |
| N=C1NC(=O)/C(=C\c2ccc(-c3cccc([N+](=O)[O-])c3)o2)S1 | 103 | 100 | 103 | 101 | 97 | 74 | 80 | 99 | 103 | 102 | 100 | 108 | 98 | 103 | 96 | 93 | 84 | 108 | 43 | 94 | Activity [20]: 98% |
